One may read the IC50 as the midpoint of a concentration-inhibition curve. Read a low IC50 as greater potency.

Test [1] has as its target Vascular endothelial growth factor receptor 2 (Homo sapiens, UniProt P35968). Nature of the test: Inhibitory activity against KDR.
For test [2], the target named is Serine/threonine-protein kinase PLK1 (Homo sapiens, UniProt P53350). Nature of the test: Inhibitory activity against Plk1.
Test [3] addresses Serine/threonine-protein kinase PAK 4 (Homo sapiens, UniProt O96013). Nature of the test: Inhibitory activity against Pak4.
The target of test [4] is Casein kinase II (Homo sapiens, UniProt P19784+P67870+P68400). Nature of the test: Inhibitory activity against CK2. Type of test: protein-complex assay.
Sequence of Casein kinase II (P67870 whole entry): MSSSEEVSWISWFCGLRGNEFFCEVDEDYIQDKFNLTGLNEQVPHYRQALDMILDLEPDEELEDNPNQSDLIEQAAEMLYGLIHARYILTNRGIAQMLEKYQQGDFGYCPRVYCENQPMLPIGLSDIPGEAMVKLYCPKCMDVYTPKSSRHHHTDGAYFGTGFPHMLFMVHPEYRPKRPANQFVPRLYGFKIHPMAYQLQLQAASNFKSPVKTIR
Sequence of Casein kinase II (P68400 whole entry): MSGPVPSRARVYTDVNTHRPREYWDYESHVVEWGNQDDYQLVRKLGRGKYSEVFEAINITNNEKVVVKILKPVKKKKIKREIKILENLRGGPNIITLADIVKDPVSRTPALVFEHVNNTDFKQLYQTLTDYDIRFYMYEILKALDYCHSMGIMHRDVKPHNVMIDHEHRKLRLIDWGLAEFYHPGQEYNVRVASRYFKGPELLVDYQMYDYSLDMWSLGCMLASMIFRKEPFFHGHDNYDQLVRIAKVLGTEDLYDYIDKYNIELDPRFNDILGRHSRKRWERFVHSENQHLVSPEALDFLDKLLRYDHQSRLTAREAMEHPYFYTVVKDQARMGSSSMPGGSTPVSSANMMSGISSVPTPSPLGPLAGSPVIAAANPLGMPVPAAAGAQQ
Sequence of Casein kinase II (P19784 whole entry): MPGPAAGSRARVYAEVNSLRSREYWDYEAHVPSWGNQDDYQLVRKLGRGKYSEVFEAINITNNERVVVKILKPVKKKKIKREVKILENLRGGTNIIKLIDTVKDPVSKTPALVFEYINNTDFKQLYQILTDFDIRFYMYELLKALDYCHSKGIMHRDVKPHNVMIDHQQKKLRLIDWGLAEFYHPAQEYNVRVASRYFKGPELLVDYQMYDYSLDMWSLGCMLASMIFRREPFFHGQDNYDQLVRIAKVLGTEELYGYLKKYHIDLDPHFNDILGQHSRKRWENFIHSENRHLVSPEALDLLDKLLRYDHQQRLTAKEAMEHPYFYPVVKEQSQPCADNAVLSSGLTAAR
Test [5] concerns the target RAC-alpha serine/threonine-protein kinase (Homo sapiens, UniProt P31749). The test is described as follows: Inhibitory activity against Akt1.
The target of test [6] is MAP kinase-activated protein kinase 2 (Homo sapiens, UniProt P49137). Nature of the test: Inhibitory activity against MK2.
Test [7] deals with Mitogen-activated protein kinase kinase kinase 8 (Homo sapiens, UniProt P41279). The test is described as follows: Inhibitory activity against COT.
Sequence of Mitogen-activated protein kinase kinase kinase 8 (P41279 whole entry): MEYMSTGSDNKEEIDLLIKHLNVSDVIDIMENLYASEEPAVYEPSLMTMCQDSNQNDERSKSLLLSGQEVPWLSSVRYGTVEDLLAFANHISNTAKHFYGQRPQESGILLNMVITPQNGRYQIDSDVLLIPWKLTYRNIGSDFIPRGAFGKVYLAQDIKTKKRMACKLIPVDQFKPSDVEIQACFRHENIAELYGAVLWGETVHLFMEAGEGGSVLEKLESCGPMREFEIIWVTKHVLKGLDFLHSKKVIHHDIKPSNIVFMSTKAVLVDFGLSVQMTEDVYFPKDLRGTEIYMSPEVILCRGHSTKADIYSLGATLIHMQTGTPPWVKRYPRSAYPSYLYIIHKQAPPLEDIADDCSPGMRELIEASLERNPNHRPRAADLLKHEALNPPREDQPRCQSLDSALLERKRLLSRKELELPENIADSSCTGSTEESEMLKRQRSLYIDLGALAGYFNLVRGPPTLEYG
For test [8], the target named is Cyclin-dependent kinase 2/cyclin A (Homo sapiens, UniProt P24941). The test is described as follows: Inhibitory activity against CDK2/Cyclin A. Type of test: protein-complex assay.
In test [9] the target is Mitogen-activated protein kinase 14 (Homo sapiens, UniProt Q16539). The test is described as follows: Inhibitory activity against p38alpha.
Sequence of Mitogen-activated protein kinase 14 (Q16539 whole entry): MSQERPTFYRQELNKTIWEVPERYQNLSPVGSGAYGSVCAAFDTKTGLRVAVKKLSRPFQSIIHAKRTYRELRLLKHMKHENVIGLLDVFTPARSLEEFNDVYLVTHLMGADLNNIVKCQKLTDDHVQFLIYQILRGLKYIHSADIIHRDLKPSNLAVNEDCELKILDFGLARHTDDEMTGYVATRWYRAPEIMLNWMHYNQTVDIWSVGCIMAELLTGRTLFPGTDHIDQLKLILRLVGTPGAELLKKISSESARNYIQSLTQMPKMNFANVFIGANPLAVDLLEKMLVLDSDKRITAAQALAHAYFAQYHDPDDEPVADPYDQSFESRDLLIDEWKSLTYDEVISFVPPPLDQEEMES

Some results are limits rather than exact numbers.

Sequence of RAC-alpha serine/threonine-protein kinase (P31749 whole entry): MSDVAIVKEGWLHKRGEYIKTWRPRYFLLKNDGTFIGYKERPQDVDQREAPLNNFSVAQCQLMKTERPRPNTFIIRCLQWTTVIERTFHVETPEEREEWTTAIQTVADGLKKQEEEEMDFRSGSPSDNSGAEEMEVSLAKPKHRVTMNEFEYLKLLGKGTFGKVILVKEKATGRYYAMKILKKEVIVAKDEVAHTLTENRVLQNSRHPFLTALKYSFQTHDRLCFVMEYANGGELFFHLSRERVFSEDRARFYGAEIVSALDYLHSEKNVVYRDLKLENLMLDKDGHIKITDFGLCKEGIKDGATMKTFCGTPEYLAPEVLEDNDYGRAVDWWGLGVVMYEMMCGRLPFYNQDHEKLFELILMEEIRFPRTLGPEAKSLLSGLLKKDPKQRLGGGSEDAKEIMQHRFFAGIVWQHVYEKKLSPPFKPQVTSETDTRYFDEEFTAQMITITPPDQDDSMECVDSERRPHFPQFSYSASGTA
Sequence of Vascular endothelial growth factor receptor 2 (P35968 whole entry): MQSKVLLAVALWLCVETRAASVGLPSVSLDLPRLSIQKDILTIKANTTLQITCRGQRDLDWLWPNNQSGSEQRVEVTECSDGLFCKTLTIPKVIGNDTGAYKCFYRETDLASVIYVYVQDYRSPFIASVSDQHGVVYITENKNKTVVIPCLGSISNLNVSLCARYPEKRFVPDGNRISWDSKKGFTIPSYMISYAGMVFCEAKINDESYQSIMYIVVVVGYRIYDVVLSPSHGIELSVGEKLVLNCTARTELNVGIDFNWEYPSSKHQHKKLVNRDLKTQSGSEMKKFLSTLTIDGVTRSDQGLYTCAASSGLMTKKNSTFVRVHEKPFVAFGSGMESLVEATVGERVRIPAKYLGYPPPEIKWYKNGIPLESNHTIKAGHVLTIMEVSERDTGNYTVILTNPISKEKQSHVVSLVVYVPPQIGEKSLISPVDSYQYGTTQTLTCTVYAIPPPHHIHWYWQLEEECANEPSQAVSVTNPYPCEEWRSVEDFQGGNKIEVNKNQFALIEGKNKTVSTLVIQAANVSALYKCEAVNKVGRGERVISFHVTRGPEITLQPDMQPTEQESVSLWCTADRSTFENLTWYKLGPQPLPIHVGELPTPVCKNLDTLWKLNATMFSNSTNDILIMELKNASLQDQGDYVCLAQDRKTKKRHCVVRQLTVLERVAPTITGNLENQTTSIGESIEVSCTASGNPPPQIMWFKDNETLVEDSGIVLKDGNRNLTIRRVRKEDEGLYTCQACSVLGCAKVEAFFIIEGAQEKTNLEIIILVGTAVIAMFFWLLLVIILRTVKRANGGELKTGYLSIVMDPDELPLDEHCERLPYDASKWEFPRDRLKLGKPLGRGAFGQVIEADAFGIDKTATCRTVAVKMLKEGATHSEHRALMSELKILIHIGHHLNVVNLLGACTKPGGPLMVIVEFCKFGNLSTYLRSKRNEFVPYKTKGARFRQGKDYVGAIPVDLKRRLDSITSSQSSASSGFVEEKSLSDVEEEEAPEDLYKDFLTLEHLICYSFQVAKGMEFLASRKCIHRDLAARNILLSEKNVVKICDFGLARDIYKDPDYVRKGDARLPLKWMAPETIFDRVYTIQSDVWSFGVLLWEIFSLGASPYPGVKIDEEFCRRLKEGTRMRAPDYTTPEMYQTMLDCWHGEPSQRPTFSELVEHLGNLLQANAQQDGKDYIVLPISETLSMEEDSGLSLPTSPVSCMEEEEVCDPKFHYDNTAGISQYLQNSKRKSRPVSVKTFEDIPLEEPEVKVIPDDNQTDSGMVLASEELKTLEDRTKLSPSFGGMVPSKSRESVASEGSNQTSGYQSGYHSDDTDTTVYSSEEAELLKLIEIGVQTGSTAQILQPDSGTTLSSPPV
Sequence of Serine/threonine-protein kinase PLK1 (P53350 whole entry): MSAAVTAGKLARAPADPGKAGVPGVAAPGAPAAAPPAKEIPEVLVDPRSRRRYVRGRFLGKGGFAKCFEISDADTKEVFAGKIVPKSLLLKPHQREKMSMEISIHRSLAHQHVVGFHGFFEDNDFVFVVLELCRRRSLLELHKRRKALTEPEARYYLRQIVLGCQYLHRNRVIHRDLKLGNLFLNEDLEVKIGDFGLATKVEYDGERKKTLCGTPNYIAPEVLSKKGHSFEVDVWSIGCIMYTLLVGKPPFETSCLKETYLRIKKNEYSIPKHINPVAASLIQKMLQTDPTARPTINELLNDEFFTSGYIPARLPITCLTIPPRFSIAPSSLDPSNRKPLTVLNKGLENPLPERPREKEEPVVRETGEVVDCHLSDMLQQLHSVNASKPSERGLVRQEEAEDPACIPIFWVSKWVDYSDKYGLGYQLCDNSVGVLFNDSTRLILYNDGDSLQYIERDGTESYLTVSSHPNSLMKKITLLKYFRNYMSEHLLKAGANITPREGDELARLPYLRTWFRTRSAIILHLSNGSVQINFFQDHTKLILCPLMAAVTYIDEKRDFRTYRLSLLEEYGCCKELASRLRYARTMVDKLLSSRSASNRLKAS
Sequence of Serine/threonine-protein kinase PAK 4 (O96013 whole entry): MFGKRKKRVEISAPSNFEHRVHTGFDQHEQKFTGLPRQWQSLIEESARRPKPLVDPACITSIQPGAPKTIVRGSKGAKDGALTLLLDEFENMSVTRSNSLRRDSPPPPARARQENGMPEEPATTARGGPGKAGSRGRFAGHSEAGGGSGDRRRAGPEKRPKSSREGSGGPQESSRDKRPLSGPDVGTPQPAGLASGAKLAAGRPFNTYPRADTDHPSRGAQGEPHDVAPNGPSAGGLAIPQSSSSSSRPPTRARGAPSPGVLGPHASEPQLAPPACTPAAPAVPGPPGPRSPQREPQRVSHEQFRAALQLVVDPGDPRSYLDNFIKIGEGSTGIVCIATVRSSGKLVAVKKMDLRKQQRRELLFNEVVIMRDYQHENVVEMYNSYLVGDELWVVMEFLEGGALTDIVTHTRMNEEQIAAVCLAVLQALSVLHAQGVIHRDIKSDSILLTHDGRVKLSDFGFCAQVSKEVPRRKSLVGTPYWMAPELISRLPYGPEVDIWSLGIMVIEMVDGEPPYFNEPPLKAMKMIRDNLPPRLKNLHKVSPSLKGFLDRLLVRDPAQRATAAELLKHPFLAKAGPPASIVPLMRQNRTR

Consider `CCCCNC(=O)c1cc2c(C)n[nH]c2s1`, for which the half-inhibitory concentration (IC50) in [1] was 16 µM; in [2], over 20 µM; in test [3] it was over 20 µM; in test [4], 21 µM; in test [5], over 20 µM; in [6], over 20 µM. In addition, the IC50 in test [7] is over 20 µM.
On to `CCCCN(C)C(=O)c1cc2c(-c3ccccc3)n[nH]c2s1`, for which the 50% inhibitory concentration (IC50) is 0.35 µM in [1]; over 20 µM in [2]; over 20 µM in test [3]; 5 µM in test [4]; over 20 µM in [5]; over 20 µM in test [8]. For the same compound, the IC50 in test [9], in [6] and in test [7] was over 20 µM throughout.
For `Cc1[nH]nc2sc(C(N)=O)c(NC(=O)Nc3ccccc3)c12`, the IC50 in test [1] was 20 µM; in test [2] it was over 20 µM; in test [3], 13 µM; in [4], 11 µM; in test [5] it was 9 µM.
As for `COc1ccc(CNC(=O)c2cc3c(-c4ccccc4)n[nH]c3s2)cc1`, the 50% inhibitory concentration (IC50) was 0.51 µM in [1]; over 20 µM in [2]; over 20 µM in [3]; over 20 µM in test [4]; over 20 µM in test [5]; over 20 µM in [8]. For the same compound, the half-inhibitory concentration (IC50) was over 20 µM in [9], 16 µM in test [6] and over 20 µM in [7].
Take `COC(=O)C(=O)Nc1c(C(N)=O)sc2[nH]nc(C)c12`: the half-maximal inhibitory concentration (IC50) is 17 µM in test [1]; 8 µM in test [2]; over 100 µM in test [3]; 3 µM in [4]; over 100 µM in test [5].
For the compound `Cc1n[nH]c2sc(C(=O)NCc3ccccc3)cc12`, the half-maximal inhibitory concentration (IC50) is 12 µM in test [1]; 16 µM in test [2]; over 20 µM in [3]; 19 µM in test [4]; over 20 µM in [5]; over 20 µM in [6]. In test [7], this compound yielded a half-maximal inhibitory concentration (IC50) of over 20 µM.
For `Cc1n[nH]c2sc(C(=O)NC3CCCCC3)cc12`, the half-inhibitory concentration (IC50) in test [1], in [2], in test [3], in test [4], in [5] and in test [6] was over 20 µM throughout. In [7], this compound showed an IC50 of over 20 µM.
Turning to `CCCCN(C)C(=O)c1cc2c(C)n[nH]c2s1`, the 50% inhibitory concentration (IC50) was over 20 µM in test [1]; over 20 µM in test [2]; over 20 µM in test [3]; 24 µM in test [4]; over 20 µM in test [5]; over 20 µM in [6]. Moreover, the IC50 in test [7] was over 20 µM.
As to `COC(=O)c1cc2c(Nc3ccccc3)[nH]nc2s1`, the IC50 in [1] is over 100 µM; in test [2], 21 µM; in test [3], 37 µM; in test [4], 5 µM; in test [5] it was 16 µM.
The corresponding values for `Cc1n[nH]c2sc(C(N)=O)c(NC(=O)c3cccc(Cl)c3)c12` are over 100 µM, over 100 µM, over 100 µM, over 100 µM and over 100 µM.
Consider `O=C(NCc1ccccc1)c1cc2c(-c3ccccc3)n[nH]c2s1`, for which the IC50 is 0.5 µM in test [1]; over 20 µM in test [3]; 2 µM in test [4]; 15 µM in test [5]; 17 µM in test [6]; over 20 µM in test [7].
Consider `O=C(NCCc1ccccc1)c1cc2c(-c3ccccc3)n[nH]c2s1`, for which the half-maximal inhibitory concentration (IC50) in test [1] is 2 µM; in test [2] it was 17 µM; in test [3], over 20 µM; in test [4], over 20 µM; in test [5], over 20 µM; in test [8], over 20 µM. In addition, the concentration for half-maximal inhibition (IC50) in test [9], in test [6] and in test [7] was over 20 µM throughout.
`Cc1n[nH]c2sc(C(N)=O)cc12`: the IC50 in test [1] is 17 µM; in test [2] it was over 20 µM; in test [3] it was over 20 µM; in [4], 4 µM; in test [5], over 20 µM; in [6] it was over 20 µM. The compound further returned an IC50 in test [7] of over 20 µM.
As for `Cc1[nH]nc2sc(C(N)=O)c(NC(=O)c3ccccc3Cl)c12`, the IC50 in [1] is 8 µM; in test [2], 23 µM; in test [3], over 100 µM; in test [4], 9 µM; in test [5], over 100 µM.
For `COC(=O)c1cc2c(C)n[nH]c2s1`, the IC50 in test [1] was 23 µM; in test [2] it was over 100 µM; in test [3] it was over 100 µM; in test [4], 38 µM; in test [5], over 100 µM.
As for `COC(=O)c1cc2c(CN3CCCCC3)n[nH]c2s1`, the half-maximal inhibitory concentration (IC50) in test [1], in test [2], in [3], in [4] and in test [5] was over 100 µM in each case.
`CC(=O)Nc1c(C(N)=O)sc2n[nH]c(C)c12`: the IC50 is 19 µM in test [1]; over 20 µM in [2]; over 20 µM in test [3]; 9 µM in [4]; over 20 µM in test [5].
Regarding `Cc1[nH]nc2sc(C(N)=O)c(NC(=O)c3ccc(Cl)cc3)c12`, the IC50 in test [1], in test [2], in test [3], in [4] and in test [5] was over 100 µM in each case.
For the compound `CN1CCN(C(=O)c2cc3c(-c4ccccc4)n[nH]c3s2)CC1`, the IC50 is 4 µM in test [1]; over 20 µM in test [2]; over 20 µM in [3]; over 20 µM in [4]; over 20 µM in test [5]; over 20 µM in test [8]. Further, the IC50 in test [9], in test [6] and in test [7] was over 20 µM throughout.
Regarding `Cc1n[nH]c2sc(C(N)=O)c(NC(=O)COc3ccccc3)c12`, the IC50 was 11 µM in test [1]; over 100 µM in test [2]; over 100 µM in [3]; 6 µM in test [4]; over 100 µM in [5].
Turning to `O=C(NC1CCCCC1)c1cc2c(-c3ccccc3)n[nH]c2s1`, the IC50 is 0.49 µM in [1]; 12 µM in [2]; over 20 µM in test [3]; over 20 µM in test [4]; over 20 µM in [5]; 11 µM in test [8]. Moreover, the IC50 in test [9], in test [6] and in test [7] was over 20 µM each time.
Regarding `Cc1n[nH]c2sc(C(N)=O)c(NC(=O)c3cccs3)c12`, the IC50 in test [1] is 6 µM; in test [2], over 100 µM; in [3], over 100 µM; in test [4] it was over 100 µM; in test [5] it was 17 µM.

The record behind these values is ChEMBL document CHEMBL1148538, “Scaffold oriented synthesis. Part 1: Design, preparation, and biological evaluation of thienopyrazoles as kinase inhibitors” (Bioorg Med Chem Lett, 2006).
